Tested on: pY641-STAT6 in Peripheral Blood Mononuclear Cells (PBMC)
Assay: MSD-pSTAT-PBMC Assay (pSTAT6, IL-4 stimulated)
Type: cell-based, Human
Settings: Homo sapiens, compound 3 hrs, then 1 ng/mL IL-4 for 10 min
Excerpt: Cryopreserved Peripheral Blood Mononuclear Cells (PBMC) are from AllCells. Recombinant Human IL-4 and IL-6 are from Peprotech. Mouse monoclonal anti-STAT3 antibody, rabbit monoclonal anti-pY705-STAT3 antibody, rabbit monoclonal Anti-pY641-STAT6 antibody, and lysis buffer are from Cell Signaling Technology (CST). Mouse monoclonal anti-STAT6 antibody is from BioLegend. Assay plates, blocker, and anti-rabbit secondary antibody are from Meso Scale Discovery (MSD).
Cryopreserved PBMCs were thawed out and allowed to recover overnight in IMDM+10% heat-inactivated FBS prior to plating 50,000 (STAT3) or 25,000 (STAT6) cells per well in 96-well U-bottom tissue culture plates. Cells were treated with compound for 3 hrs, then stimulated with 10 ng/mL IL-6 (STAT3) or 1 ng/mL IL-4 (STAT6) for 10 min. Cells were then spun down and washed with ice-cold PBS prior to lysing the cell pellet with 1× lysis buffer (CST) with 1×HALT protease and phosphatase inhibitor cocktail (Thermo). Lysates were transferred to and incubated overnight at 4° C. with shaking in QuickPlex 96-well high bind assay plates (MSD) pre-coated overnight with 30 μL per well of 0.6 μg/mL mouse monoclonal anti-STAT3 antibody (STAT3) or 2 μg/mL mouse monoclonal anti-STAT6 antibody (STAT6) in 1×PBS, and pre-blocked for 1 hour with 3% Blocker-A (MSD). Captured protein in the assay plates were then washed and probed with 25 μL per well of 0.25 μg/ml rabbit monoclonal anti-pY705-STAT3 antibody (STAT3) or […] rabbit monoclonal Anti-pY641-STAT6 antibody (STAT6) in 1% Blocker-A for 1 hour at room temperature with shaking, then washed and probed with 25 ul per well of 1 ug/ml Sulfo-TAG Labeled Goat Anti-Rabbit Antibody (MSD) in 1% Blocker-A for 1 hour at room temperature with shaking. Assay plates were then washed and 150 μL of 1× Read Buffer-T (MSD) was added to each well prior to reading on an SQ120 MSD Plate Reader. Assay signal from each sample was subtracted by the signal from unstimulated control wells and normalized to DMSO control wells. IC50 values were calculated using Graph Pad Prism Dose-Response Nonlinear Regression with variable slope. For both pSTAT3 and pSTAT6 A=≤100 nM; B=>100-1000 nM; C=>1000-3000 nM; and D=>3 μM.

| Compound | IC50 [nM] |
| --- | --- |
| CCCOC(=O)[C@H](C)NP(=O)(Oc1ccccc1)C(F)c1ccc2ccc(C(=O)N[C@H]3CN(C(C)=O)CC[C@H]4CC[C@@H](C(=O)N5CCC(c6cccnc6)C5)N4C3=O)cc2c1 (stereo partly drawn) [Compound 409, propyl (((7-(((5S,8S,10aR)-3-acetyl-6-oxo-8-(3-(pyridin-3-yl)pyrrolidine-1-carbonyl)decahydropyrrolo [1,2-a] [1,5]diazocin-5-yl)carbamoyl)naphthalen-2-yl)fluoromethyl) (phenoxy)phosphoryl)-L-alaninate] | 1000 to 3000 |
| CCCOC(=O)[C@H](C)NP(=O)(Oc1ccccc1)C(F)c1ccc2sc(C(=O)N[C@H]3CN(CC(F)F)CC[C@H]4CC[C@@H](C(=O)N5C[C@@H](C#N)[C@H](c6ccccc6)C5)N4C3=O)cc2c1 (some centres unmarked) [Compound 441] | ≤ 100 |
| CCCOC(=O)[C@H](C)NP(=O)(Oc1ccccc1)C(F)c1ccc2ccc(C(=O)N[C@H]3CN(S(=O)(=O)CCC)CC[C@H]4CC[C@@H](C(=O)N5CCOCC5)N4C3=O)cc2c1 (stereo partly drawn) [Compound 427, propyl ((fluoro(7-(((5S,8S,10aR)-8-(morpholine-4-carbonyl)-6-oxo-3-(propylsulfonyl)decahydro-pyrrolo [1,2-a][1,5]diazocin-5-yl)carbamoyl)naphthalen-2-yl)methyl) (phenoxy)phosphoryl)-L-alaninate] | > 3000 |
| CCCOC(=O)[C@H](C)NP(=O)(Oc1ccccc1)[C@H](F)c1ccc2ccc(C(=O)N[C@H]3CN(C(=O)c4noc5ccc(C)cc45)CC[C@H]4CC[C@@H](C(=O)N5C[C@@H](c6ccn(C)c(=O)c6)CC56CC6)N4C3=O)cc2c1 (stereo partly drawn) [Compound 417, propyl (((S)-fluoro(7-(((5S,8S,10a R)-8-((R)-6-(1-methyl-2-oxo-1,2-dihydro-pyridin-4-yl)-4-azaspiro[2.4]heptane-4-carbonyl)-3-(5-methylbenzo [d]isoxazole-3-carbonyl)-6-oxodeca-hydropyrrolo [1,2-a][1,5]diazocin-5-yl)carbamoyl)naphthalen-2-yl)methyl) (phenoxy)phosphoryl)-L-alaninate] | ≤ 100 |
| CCCOC(=O)[C@H](C)NP(=O)(Oc1ccccc1)C(F)c1ccc2ccc(C(=O)N[C@H]3CN(C(=O)c4noc5ccc(C)cc45)CC[C@H]4CC[C@@H](C(=O)N5C[C@@H]6C[C@H]5CO6)N4C3=O)cc2c1 (stereo partly drawn) [Compound 414, propyl (((7-(((5S,8S,10aR)-8-((1S,4S)-2-oxa-5-azabicyclo [2.2.1]heptane-5-carbonyl)-3-(5-methylbenzo [d]isoxazole-3-carbonyl)-6-oxodeca-hydropyrrolo [1,2-a][1,5]diazocin-5-yl)carbamoyl)naphthalen-2-yl)fluoromethyl) (phenoxy)phosphoryl)-L-alaninate] | ≤ 100 |
| CCCOC(=O)[C@H](C)NP(=O)(Oc1ccccc1)C(F)c1ccc2ccc(C(=O)N[C@H]3CN(C(=O)c4noc5ccc(C)cc45)CC[C@H]4CC[C@@H](C(=O)N5CCOC(Cc6ccccc6)C5)N4C3=O)cc2c1 (stereo partly drawn) [Compound 415, propyl (((7-(((5S,8S,10aR)-8-(2-benzyl-morpholine-4-carbonyl)-3-(5-methylbenzo [d]isoxazole-3-carbonyl)-6-oxodeca-hydropyrrolo [1,2-a][1,5]diazocin-5-yl)carbamoyl)naphthalen-2-yl)fluoromethyl) (phenoxy)phosphoryl)-L-alaninate] | 100 to 1000 |
| CC(=O)N1CC[C@H]2CC[C@@H](C(=O)N3C[C@H](c4cc[nH]c(=O)c4)[C@@H](C#N)C3)N2C(=O)[C@@H](NC(=O)c2ccc3ccc(C(F)(F)P(=O)(OCCSC(=O)CC(C)C)OCOC(=O)OC(C)C)cc3c2)C1 (single isomer, unassigned) [Compound 302, S-(2-((((7-(((5S,8S, 10aR)-3-acetyl-8-((3R,4S or 3S,4R)-3-cyano-4-(2-oxo-1,2-dihydro-pyridin-4-yl)pyrrolidine-1-carbonyl)-6-oxodecahydro-pyrrolo[1,2-a][1,5]diazocin-5-yl)carbamoyl)naphthalen-2-yl)difluoro-methyl)(((iso-propoxy-carbonyl)oxy)methoxy)phos-phoryl)oxy)ethyl)3-methylbutane-thioate] | 100 to 1000 |
| Cc1ccc2onc(C(=O)N3CC[C@H]4CC[C@@H](C(=O)N5C[C@H](c6ccn(C)c(=O)c6)CC56CC6)N4C(=O)[C@@H](NC(=O)c4ccc5ccc(C(F)(F)P(=O)(OCCSC(=O)C(C)(C)C)OCCSC(=O)C(C)(C)C)cc5c4)C3)c2c1 [Compound 437, S,S′-((((difluoro(7 (((5S,8S,10aR)-8-((S)-6-(1-methyl-2-oxo-1,2-dihydropyridin-4-yl)-4-azaspiro[2.4]heptane-4-carbonyl)-3-(5-methylbenzo [d]isoxazole-3-carbonyl)-6-oxodeca-hydropyrrolo [1,2-a][1,5]diazocin-5-yl)carbamoyl)naphthalen-2-yl)methyl)phosphoryl)bis (oxy))bis (ethane-2,1-diyl))bis(2,2-dimethyl-propanethioate)] | ≤ 100 |
| CCCOC(=O)[C@H](C)NP(=O)(Oc1ccccc1)C(F)c1ccc2ccc(C(=O)N[C@H]3CCN(C(=O)c4cc(C)cc(Cl)c4)C[C@H]4CC[C@@H](C(=O)N5CCOCC5)N4C3=O)cc2c1 (stereo partly drawn) [Compound 422, propyl (((7-(((5S,8S,10aR)-2-(3-chloro-5-methylbenzoyl)-8-(morpholine-4-carbonyl)-6-oxodeca-hydropyrrolo [1,2-a][1,4]diazocin-5-yl)carbamoyl)naphthalen-2-yl)fluoromethyl) (phenoxy)phosphoryl)-L-alaninate] | 1000 to 3000 |
| CCCOC(=O)[C@H](C)NP(=O)(Oc1ccccc1)C(F)c1ccc2ccc(C(=O)N[C@H]3CN(C(=O)c4cc5ncccn5n4)CC[C@H]4CC[C@@H](C(=O)N5CCOCC5)N4C3=O)cc2c1 (stereo partly drawn) [Compound 426, propyl ((fluoro(7-(((5S,8S,10aR)-8-(morpholine-4-carbonyl)-6-oxo-3-(pyrazolo[1,5-a]pyrimidine-2-carbonyl)decahydro-pyrrolo [1,2-a][1,5]diazocin-5-yl)carbamoyl)naphthalen-2-yl)methyl) (phenoxy)phosphoryl)-L-alaninate] | > 3000 |
| CCCOC(=O)[C@H](C)NP(=O)(Oc1ccccc1)C(F)c1ccc2ccc(C(=O)N[C@H]3CN(C(=O)c4noc5c4CCCC5)CC[C@H]4CC[C@@H](C(=O)N5CCOCC5)N4C3=O)cc2c1 (stereo partly drawn) [Compound 425, propyl ((fluoro(7-(((5S,8S,10aR)-8-(morpholine-4-carbonyl)-6-oxo-3-(4,5,6,7-tetrahydro-benzo[d]isoxazole-3-carbonyl)decahydropyrrolo [1,2-a][1,5]diazocin-5-yl)carbamoyl)naphthalen-2-yl)methyl) (phenoxy)phosphoryl)-L-alaninate] | 1000 to 3000 |
| CCCOC(=O)[C@H](C)NP(=O)(Oc1ccccc1)C(F)c1ccc2ccc(C(=O)N[C@H]3CN(C(=O)c4noc5ccc(C)cc45)CC[C@H]4CC[C@@H](C(=O)N5CCOC[C@@H]5c5ccccc5)N4C3=O)cc2c1 (stereo partly drawn) [Compound 412, propyl ((fluoro(7-(((5S,8S,10aR)-3-(5-methylbenzo [d]isoxazole-3-carbonyl)-6-oxo-8-((S)-3-phenyl-morpholine-4-carbonyl)decahydro-pyrrolo [1,2-a][1,5]diazocin-5-yl)carbamoyl)naphthalen-2-yl)methyl) (phenoxy)phosphoryl)-L-alaninate] | 100 to 1000 |
| Cc1ccc2[nH]nc(C(=O)N3CC[C@H]4CC[C@@H](C(=O)N5C[C@H](c6cc[nH]c(=O)c6)CC56CC6)N4C(=O)[C@@H](NC(=O)c4ccc5ccc(C(F)(F)P(=O)(OCCSC(=O)CC(C)C)OCCSC(=O)CC(C)C)cc5c4)C3)c2c1 [Compound 431, S,S′-((((difluoro(7-(((5S,8S,10aR)-3-(5-methyl-1H-indazole-3-carbonyl)-6-oxo-8-(6-(2-oxo-1,2-dihydropyridin-4-y1)-4-azaspiro[2.4]heptane-4-carbonyl)dec-ahydropyrrolo [1,2-a][1,5]diazocin-5-yl)carbamoyl)naphthalen-2-yl)methyl)phosphoryl)bis(oxy))bis(ethane-2,1-diyl)) bis(3-methylbutane thioate)] | ≤ 100 |
| Cc1ccc2onc(C(=O)N3CC[C@H]4CC[C@@H](C(=O)N5C[C@@H](c6cc[nH]c(=O)c6)CC56CC6)N4C(=O)[C@@H](NC(=O)c4ccc5ccc(C(F)(F)P(=O)(OCCSC(=O)C(C)(C)C)OCCSC(=O)C(C)(C)C)cc5c4)C3)c2c1 [Compound 435, S,S′-((((difluoro(7 (((5S,8S,10aR)-3-(5-methylbenzo [d]isoxazole-3-carbonyl)-6-oxo-8-((R)-6-(2-oxo-1,2-dihydro-pyridin-4-yl)-4-azaspiro[2.4]heptane-4-carbonyl)decahydro-pyrrolo[1,2-a] [1,5]diazocin-5-yl)carbamoyl)naphthalen-2-yl)methyl)phosphoryl)bis(oxy))bis (ethane-2,1-diyl))bis(2,2-dimethyl-propanethioate)] | ≤ 100 |

From patent US20250179103A1, “6-OXODECAHYDROPYRROLO[1,2-A][1,5]DIAZOCINE AND 6-OXODECAHYDRO-4H-PYRROLO[2,1-D][1,5]THIAZOCINE DERIVATIVES AS STAT3 AND STAT6 MODULATORS FOR THE TREATMENT OF CANCER AND INFLAMMATORY CONDITIONS” (Recludix Pharma, Inc., priority 2022, published 2025)
